In assay [1] the target is Bcl-2 (Homo sapiens, UniProt P10415). The assay is described as follows: Bcl-2 binding affinity analysis (fluorescence polarization binding assay). The settings on record: read-out: BcI2 (Ki, Bcl-2 binding affinity). The source says: (§1) Bcl-2 and Bcl-xL binding may be determined using a variety of known methods. One such assay is a sensitive and quantitative in vitro binding assay using fluorescence polarization (FP) described by Wang, J.-L.; Zhang, Z-J.; Choksi, S.; Sjam. S.; Lu, Z.; Croce, C. M.; Alnemri, E. S.; Komgold, R.; Huang, Z. Cell permeable Bcl-2 binding peptides: a chemical approach to apoptosis induction in tumor cells. Cancer Res. 2000, 60, 1498-1502).
(§2) Bcl-2 and Bcl-xL binding affinity analysis data is presented below for various compounds of the invention.

Assay [2] addresses Bcl-xL (Homo sapiens, UniProt Q07817). Briefly: Bcl-xL binding affinity analysis (fluorescence polarization binding assay). The conditions noted are these: read-out: BcI-XI (Ki, Bcl-xL binding affinity).
Source text: as §1, §2
On the technique in general: Fluorescence polarisation rises when a labelled molecule tumbles more slowly, as on binding a larger partner.

A value given as a limit tells only on which side of the number the result lay.

Broadly, the Ki is the equilibrium dissociation constant of an inhibitor or competing ligand from its target.

Bcl-xL, sequence (Q07817 whole entry): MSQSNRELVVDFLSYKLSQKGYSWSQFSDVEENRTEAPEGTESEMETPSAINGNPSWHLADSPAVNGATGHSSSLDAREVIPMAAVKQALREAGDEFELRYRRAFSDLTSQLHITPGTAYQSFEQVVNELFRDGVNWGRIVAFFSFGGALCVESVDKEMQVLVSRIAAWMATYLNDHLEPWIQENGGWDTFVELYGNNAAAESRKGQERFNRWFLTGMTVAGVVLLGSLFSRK
Bcl-2, sequence (P10415 whole entry): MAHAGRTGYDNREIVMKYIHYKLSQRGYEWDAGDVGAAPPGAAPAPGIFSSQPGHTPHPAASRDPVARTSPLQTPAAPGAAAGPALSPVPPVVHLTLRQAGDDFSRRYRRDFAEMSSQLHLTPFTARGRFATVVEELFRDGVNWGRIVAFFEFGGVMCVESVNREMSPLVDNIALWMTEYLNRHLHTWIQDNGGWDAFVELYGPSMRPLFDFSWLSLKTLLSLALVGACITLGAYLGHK

For the compound `COc1c(CN2O[C@@H](CO)[C@@H]([C@H](C)O)[C@H]2C(=O)N[C@H]2C[C@H]3C[C@@H]([C@@H]2C)C3(C)C)cccc1-c1cc(C(=O)N[C@H](CN(C)C)[C@@H](NS(C)(=O)=O)c2ccccc2)cc(N(C)CCO)c1` [Compound 290], the figures for the Ki in assay [1] and in assay [2] were less than 1 nM and less than 1000 nM, respectively.
For `COc1c(CN2O[C@@H](CO)[C@@H]([C@H](C)O)[C@H]2C(=O)N[C@H]2C[C@H]3C[C@@H]([C@@H]2C)C3(C)C)cccc1-c1cc(NCC(C)C)cc(C(=O)N[C@@H](CC(C)C)CN(C)C)c1` [Compound 270] the same measures were 1 to 5 nM and 1000 to 5000 nM.
For `CNC(=O)c1cc(-c2cccc(CN3O[C@@H](CNCc4ccccc4)[C@@H]([C@H](C)O)[C@H]3C(=O)N[C@H]3C[C@H]4C[C@@H]([C@@H]3C)C4(C)C)c2OC)cc(N(C)C)c1` [Compound 85] the same measures were more than 9 nM and 5000 to 10000 nM.
For `COC(=O)[C@H](Cc1ccccc1)NC(=O)c1cc(-c2cccc(CN3O[C@@H](CN)[C@@H]([C@H](C)O)[C@H]3C(=O)N[C@H]3C[C@H]4C[C@@H]([C@@H]3C)C4(C)C)c2OC)cc(N(C)C)c1` [Compound 65] the same measures were less than 1 nM and more than 10000 nM.
Regarding `COc1c(CN2O[C@@H](CO)[C@@H]([C@H](C)O)[C@H]2C(=O)N[C@H]2C[C@H]3C[C@@H]([C@@H]2C)C3(C)C)cccc1-c1cc(C(=O)N[C@@H](Cc2ccccc2)CN(C)C)cc([N+](=O)[O-])c1` [Compound 264], the results for the inhibition constant (Ki) in assay [1] and in assay [2] were less than 1 nM and less than 1000 nM, respectively.
As to `COc1c(CN2O[C@@H](CO)[C@@H]([C@H](C)O)[C@H]2C(=O)N[C@H]2C[C@H]3C[C@@H]([C@@H]2C)C3(C)C)cccc1-c1cc(C(=O)N[C@H](CN(C)C)[C@@H](NS(C)(=O)=O)c2ccccc2)cc(N(C)C)c1` [Compound 144], the Ki in assay [1] is less than 1 nM; in assay [2], less than 1000 nM.
For `COc1c(CN2O[C@@H](CO)[C@@H]([C@H](C)O)[C@H]2C(=O)N[C@H]2C[C@H]3C[C@@H]([C@@H]2C)C3(C)C)cccc1-c1cc(C(=O)N[C@@H](Cc2ccccc2)CN(C)C)cc(N2CCOCC2)c1` [Compound 240] the same measures were less than 1 nM and 1000 to 5000 nM.
The matching figures for `COc1c(CN2O[C@@H](CN)[C@@H]([C@H](C)O)[C@H]2C(=O)N[C@H]2C[C@H]3C[C@@H]([C@@H]2C)C3(C)C)cccc1-c1cc(C(=O)N(C)OC)cc(N(C)C)c1` [Compound 66]: less than 1 nM and 5000 to 10000 nM.
Take `CNC(=O)O[C@@H](C)[C@@H]1[C@H](CN)ON(Cc2cccc(-c3cc(C(=O)NC)cc(N(C)C)c3)c2OC)[C@@H]1C(=O)N[C@H]1C[C@H]2C[C@@H]([C@@H]1C)C2(C)C` [Compound 93]: the Ki in assay [1] was more than 9 nM; in assay [2] it was more than 10000 nM.
For `COc1c(CN2O[C@@H](CO)[C@@H]([C@H](C)O)[C@H]2C(=O)N[C@H]2C[C@H]3C[C@@H]([C@@H]2C)C3(C)C)cccc1-c1cc(C(=O)N[C@@H](CCc2ccccc2)CN(C)C)cc([N+](=O)[O-])c1` [Compound 265] the same measures were less than 1 nM and less than 1000 nM.
For `COc1c(CN2O[C@@H](CN(C)C)[C@@H]([C@H](C)O)[C@H]2C(=O)N[C@H]2C[C@H]3C[C@@H]([C@@H]2C)C3(C)C)cccc1-c1cc(C(=O)NCCc2ccccc2)cc(N(C)C)c1` [Compound 80] the same measures were 5 to 9 nM and 5000 to 10000 nM.
For `CNC(=O)c1cc(-c2cccc(CN3O[C@@H](CNCc4ccccn4)[C@@H]([C@H](C)O)[C@H]3C(=O)N[C@H]3C[C@H]4C[C@@H]([C@@H]3C)C4(C)C)c2OC)cc(N(C)C)c1` [Compound 83] the same measures were more than 9 nM and more than 10000 nM.
Take `COc1c(CN2O[C@@H](CN)[C@@H]([C@H](C)O)[C@H]2C(=O)N[C@H]2C[C@H]3C[C@@H]([C@@H]2C)C3(C)C)cccc1-c1cc(C(=O)NCCc2ccccc2)cc(N(C)C)c1` [Compound 62]: the Ki in assay [1] was less than 1 nM; in assay [2], 5000 to 10000 nM.
As to `CCOc1c(CN2O[C@@H](CO)[C@@H]([C@H](C)O)[C@H]2C(=O)N[C@H]2C[C@H]3C[C@@H]([C@@H]2C)C3(C)C)cccc1-c1cc(C(=O)N[C@H](CN(C)C)CS(C)(=O)=O)cc(N(C)C)c1` [Compound 176], the Ki was in the range of 1 to 5 nM in assay [1] and 1000 to 5000 nM in assay [2].
The matching figures for `C[C@@H]1[C@@H](NC(=O)[C@@H]2[C@H]([C@H](C)O)[C@H](CN)ON2Cc2cccc(-c3cc(C(=O)NCCN(C)C)cc(N(C)C)c3)c2F)C[C@H]2C[C@@H]1C2(C)C` [Compound 53]: 1 to 5 nM and more than 10000 nM.
The matching figures for `CCN(CC)c1cc(C(=O)N[C@@H](CC(C)C)CN(C)C)cc(-c2cccc(CN3O[C@@H](CO)[C@@H]([C@H](C)O)[C@H]3C(=O)N[C@H]3C[C@H]4C[C@@H]([C@@H]3C)C4(C)C)c2OC)c1` [Compound 267]: less than 1 nM and 1000 to 5000 nM.
As for `CNC(=O)CN(C)c1cc(C(=O)N[C@@H](Cc2ccccc2)CN(C)C)cc(-c2cccc(CN3O[C@@H](CO)[C@@H]([C@H](C)O)[C@H]3C(=O)N[C@H]3C[C@H]4C[C@@H]([C@@H]3C)C4(C)C)c2OC)c1` [Compound 309], the values for the Ki in assay [1] and in assay [2] were less than 1 nM and less than 1000 nM, respectively.
For `COc1c(CN2O[C@@H](CO)[C@@H]([C@H](C)O)[C@H]2C(=O)N[C@H]2C[C@H]3C[C@@H]([C@@H]2C)C3(C)C)cccc1-c1cc(C(=O)N[C@H](CN(C)C)[C@H](OC)c2ccccc2)cc(N(C)C)c1` [Compound 152] the same measures were less than 1 nM and less than 1000 nM.
For `COc1c(-c2cc(C(=O)N[C@@H](Cc3ccccc3)CN(C)C)cc(N(C)C)c2)ccc(Cl)c1CN1O[C@@H](CO)[C@@H]([C@H](C)O)[C@H]1C(=O)N[C@H]1C[C@H]2C[C@@H]([C@@H]1C)C2(C)C` [Compound 274] the same measures were less than 1 nM and 1000 to 5000 nM.
For `COc1c(CN2O[C@@H](CO)[C@@H]([C@H](C)O)[C@H]2C(=O)N[C@H]2C[C@H]3C[C@@H]([C@@H]2C)C3(C)C)cccc1-c1cc(C(=O)N[C@H](CN2CCCC2)[C@H](O)c2ccccc2)cc(N(C)C)c1` [Compound 160] the same measures were less than 1 nM and less than 1000 nM.
Turning to `CCOc1c(CN2O[C@@H](CN)[C@@H]([C@H](C)O)[C@H]2C(=O)N[C@H]2C[C@H]3C[C@@H]([C@@H]2C)C3(C)C)cccc1-c1cc(C(=O)N[C@@H](Cc2ccccc2)CN(C)C)cc(N(C)C)c1` [Compound 218], the figures for the Ki in assay [1] and in assay [2] were less than 1 nM and 1000 to 5000 nM, respectively.
On to `CNC(=O)c1cc(-c2cccc(CN3O[C@@H](CNC(=O)CCC(=O)OC)[C@@H]([C@H](C)O)[C@H]3C(=O)N[C@H]3C[C@H]4C[C@@H]([C@@H]3C)C4(C)C)c2OC)cc(N(C)C)c1` [Compound 78], for which the Ki in assay [1] was more than 9 nM; in assay [2], 5000 to 10000 nM.
The matching figures for `CCOc1c(CN2O[C@@H](CO)[C@@H]([C@H](C)O)[C@H]2C(=O)N[C@H]2C[C@H]3C[C@@H]([C@@H]2C)C3(C)C)cccc1-c1cc(C(=O)N[C@H](CN(C)C)CC(C)(C)C)cc(N(C)C)c1` [Compound 24]: less than 1 nM and less than 1000 nM.
The matching figures for `CNC(=O)c1cc(-c2cccc(CN3O[C@@H](CN)[C@@H]([C@H](C)OC(=O)N(C)C)[C@H]3C(=O)N[C@H]3C[C@H]4C[C@@H]([C@@H]3C)C4(C)C)c2OC)cc(N(C)C)c1` [Compound 87]: more than 9 nM and more than 10000 nM.
The matching figures for `CNC(=O)c1cc(-c2cccc(CN3O[C@@H](CN(C)C)[C@@H]([C@H](C)O)[C@H]3C(=O)N[C@H]3C[C@H]4C[C@@H]([C@@H]3C)C4(C)C)c2OC)cc(N(C)C)c1` [Compound 99]: more than 9 nM and more than 10000 nM.
For the compound `COc1c(CN2O[C@@H](CN)[C@@H]([C@H](C)O)[C@H]2C(=O)N[C@H]2C[C@H]3C[C@@H]([C@@H]2C)C3(C)C)cccc1-c1cc(C(=O)N[C@H](CC(C)C)CN(C)C)cc(N(C)C)c1` [Compound 68], the Ki in assay [1] is less than 1 nM; in assay [2] it was less than 1000 nM.
Regarding `CCOc1c(CN2O[C@@H](CO)[C@@H]([C@H](C)O)[C@H]2C(=O)N[C@H]2C[C@H]3C[C@@H]([C@@H]2C)C3(C)C)cccc1-c1cc(C(=O)N[C@H](Cc2ccccc2)CN(C)C)cc(N(C)C)c1` [Compound 23], the Ki in assay [1] is less than 1 nM; in assay [2], less than 1000 nM.
For `CNC(=O)c1cc(-c2cccc(CN3O[C@@H](CNC(=O)CCC(=O)O)[C@@H]([C@H](C)O)[C@H]3C(=O)N[C@H]3C[C@H]4C[C@@H]([C@@H]3C)C4(C)C)c2OC)cc(N(C)C)c1` [Compound 75] the same measures were 5 to 9 nM and 1000 to 5000 nM.
The matching figures for `COc1c(CN2O[C@@H](CO)[C@@H]([C@H](C)O)[C@H]2C(=O)N[C@H]2C[C@H]3C[C@@H]([C@@H]2C)C3(C)C)cccc1-c1cc(C(=O)N[C@@H](Cc2cccs2)CN(C)C)cc(N(C)C)c1` [Compound 251]: less than 1 nM and less than 1000 nM.
The matching figures for `COc1c(CN2O[C@@H](CNC(C)=O)[C@@H]([C@H](C)O)[C@H]2C(=O)N[C@H]2C[C@H]3C[C@@H]([C@@H]2C)C3(C)C)cccc1-c1cc(C(=O)NCCc2ccccc2)cc(N(C)C)c1` [Compound 76]: 5 to 9 nM and more than 10000 nM.
On to `CC(C)C[C@H](CN(C)C)NC(=O)c1cc(-c2cccc(CN3O[C@@H](CO)[C@@H]([C@H](C)O)[C@H]3C(=O)N[C@H]3C[C@H]4C[C@@H]([C@@H]3C)C4(C)C)c2OCC2CC2)cc(N(C)C)c1` [Compound 34], for which the Ki in assay [1] was less than 1 nM; in assay [2], less than 1000 nM.

The values above are taken from patent US8178690B2, “Compounds and methods for inhibiting the interaction of BCL proteins with binding partners” (Infinity Pharmaceuticals, Inc., priority 2006, dated 2012).
